Experimental data as given in patent US20110087015A1, “Nucleoside and nucleotide having an unnatural base and use thereof” (priority 2003, published 2011).
“Also recorded” adds a separate entry of the source. Read-outs that look alike come from different tables or passages of the source.

What was measured:
[1] = biological target: T1, Klenow fragment (Large Fragment E. coli DNA Polymerase I) (Escherichia coli, UniProt P00582); assay: Klenow fragment-mediated elongation reaction (replication); assay type: biochemical; conditions: substrates A; for replication with two adjacent unnatural bases in template (35-mer product): G, y, NN=vv or NN=ss
T1 construct: purchased TaKaRa
T1 sequence (P00582 324-928): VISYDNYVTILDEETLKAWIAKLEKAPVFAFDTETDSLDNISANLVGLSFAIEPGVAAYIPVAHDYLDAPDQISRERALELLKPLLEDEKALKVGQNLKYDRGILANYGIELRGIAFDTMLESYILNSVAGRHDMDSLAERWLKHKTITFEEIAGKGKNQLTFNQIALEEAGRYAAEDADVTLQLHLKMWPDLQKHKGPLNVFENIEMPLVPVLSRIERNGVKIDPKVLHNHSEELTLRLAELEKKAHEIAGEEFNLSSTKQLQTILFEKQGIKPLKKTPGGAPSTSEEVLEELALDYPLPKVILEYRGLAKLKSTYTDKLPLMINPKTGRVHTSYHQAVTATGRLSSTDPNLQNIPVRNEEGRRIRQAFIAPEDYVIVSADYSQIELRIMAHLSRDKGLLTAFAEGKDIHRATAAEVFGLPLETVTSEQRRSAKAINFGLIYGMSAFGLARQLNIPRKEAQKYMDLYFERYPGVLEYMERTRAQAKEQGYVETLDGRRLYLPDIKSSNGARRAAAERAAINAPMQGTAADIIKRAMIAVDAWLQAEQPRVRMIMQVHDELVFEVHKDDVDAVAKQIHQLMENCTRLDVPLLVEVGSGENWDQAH
Source text: This example was intended to study selective introduction of y at a site corresponding to v in the complementary DNA strand during Klenow fragment-mediated elongation reaction, rather than single-base incorporation. The reaction primer DNA and template DNA used are shown below.
As in the case of Example 2, the primer was pre-labeled at its 5′-end using […] and then purified by gel electrophoresis. In Experiments 2 and 3, the base y is incorporated as the first base of elongation from the primer. In contrast, in this experiment, v in the template is located at a position corresponding to the severalth base elongated from the primer, and it is therefore possible to study the introduction of y at a site corresponding to v in the complementary DNA strand during elongation reaction.
The template DNA (400 nM) and the primer whose 5′-end was labeled with ^32P (FIG. 11) (400 nM), each of which had been dissolved in 2× reaction buffer (20 mM Tris-HCl pH 7.5, 14 mM MgCl2, 0.2 mM DTT), were heated at 95° C. for 3 minutes and then annealed by quenching to form a duplex. After this duplex DNA solution was dispensed in 5 μl aliquots, 2 μl of a dNTP solution (a combination shown in each lane of FIG. 12 or 13) (50 μM) and 3 μl (0.15 units) of Klenow fragment (KF exo^+; Cloned Klenow Fragment for sequencing (Large Fragment E. coli DNA Polymerase I), purchased from TaKaRa) diluted with water were added to start the enzymatic reaction at 37° C. After incubation for 3 minutes, the enzymatic reaction was stopped by adding 10 μl of a 10 M urea-containing TBE solution and heating at 75° C. for 3 minutes. The reaction conditions are summarized as follows: template/primer 200 nM; KF […] 0.015U/μl; dNTPs 10 μM; reaction at 37° C. for 3 minutes.
Aliquot parts of the reaction solutions were electrophoresed on a 15% polyacrylamide-7 M urea gel and the reaction products were analyzed with a bioimaging analyzer (BAS2500, Fuji Photo Film Co., Ltd., Japan). […]

[2] = biological target: T2, Klenow fragment (KF exo−) (Escherichia coli, UniProt P00582, D355A/E357A); assay type: biochemical, E. coli; conditions: for efficiency (Vmax/Km) / Vmax / Km: template base N = label; for Vmax: normalized to enzyme concentration 20 nM
T2 construct: Large fragment of DNA polymerase Exonuclease-free Klenow enzyme (Cloned) (Amersham USB); purchased Amersham USB
T2 sequence (P00582 324-928 D355A/E357A): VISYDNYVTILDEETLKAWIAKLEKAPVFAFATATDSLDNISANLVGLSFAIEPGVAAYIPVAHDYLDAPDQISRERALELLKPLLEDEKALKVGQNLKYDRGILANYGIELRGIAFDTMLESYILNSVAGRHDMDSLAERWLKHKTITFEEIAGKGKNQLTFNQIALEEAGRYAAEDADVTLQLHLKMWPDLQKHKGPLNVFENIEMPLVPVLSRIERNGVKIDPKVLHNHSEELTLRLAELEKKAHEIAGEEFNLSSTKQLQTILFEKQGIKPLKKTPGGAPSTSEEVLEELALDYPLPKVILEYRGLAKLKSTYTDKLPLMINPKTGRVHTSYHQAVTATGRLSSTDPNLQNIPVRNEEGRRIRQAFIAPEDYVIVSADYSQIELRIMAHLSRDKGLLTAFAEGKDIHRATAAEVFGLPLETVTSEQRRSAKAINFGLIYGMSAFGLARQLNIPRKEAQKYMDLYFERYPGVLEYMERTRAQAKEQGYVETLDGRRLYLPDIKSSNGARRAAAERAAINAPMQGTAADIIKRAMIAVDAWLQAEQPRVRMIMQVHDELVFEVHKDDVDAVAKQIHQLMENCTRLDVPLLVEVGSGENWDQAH
Source text: This example was intended to analyze reaction rate constants in the same Klenow fragment-mediated single nucleotide insertion reaction as shown in Example 2.
More specifically, the reaction primer used was a primer whose 5′-end was fluorescently labeled with 6-FAM (SEQ ID NO: 1, FIG. 10). The primer whose 5′-end was fluorescently labeled was purchased from Applied Biosystems among those commercially available as custom fluorescent primers for GeneScan, and purified by gel electrophoresis. The analysis of reaction products was performed with a DNA sequencer (Applied Biosystems; model ABI377).
Reaction conditions: Template DNA (SEQ ID NO: 2 or 3) (10 μM) and the fluorescently-labeled primer (10 μM), each of which had been dissolved in 2× reaction buffer (100 mM Tris-HCl pH 7.5, 20 mM MgCl2, 2 mM DTT, 100 μg/ml BSA), were heated at 95° C. for 3 minutes and then annealed by quenching to form a duplex between the template and the primer. After this duplex DNA solution was dispensed in 5 μl aliquots, a KF exo^− solution (15-250 nM) diluted with enzyme dilution buffer was added in a volume of 2 μl, followed by incubation at 37° C. for 2 minutes to form a DNA-enzyme complex. The resulting solution was supplemented with 3 μl dNTP solution (any one of A, G, C, T or y) (100 μM-7 mM) and enzymatically reacted at 37° C. (1.5-20 minutes). The reaction was stopped by adding 10 μl of a 95% formamide solution containing 20 mM EDTA (stop solution) and heating at 75° C. for 3 minutes.
The reaction conditions are summarized as follows: 5 μM template-primer duplex, 3-50 nM enzyme and 30-2100 μM dNTP are used in a solution (10 μl). The solution (10 μl) contains 50 mM Tris-HCl (pH 7.5), 10 mM MgCl2, 1 mM DTT and 0.05 mg/ml BSA. The reaction is performed at 37° C. for 1.5-20 minutes.
After aliquot parts of the reaction solutions were diluted 50-fold with the stop solution, the thus diluted reaction solutions (0.5 μl) were each mixed with 3 μl loading solution (deionized formamide:50 mg/mL blue dextran solution containing 25 mM EDTA=5:1), heated at 90° C. for 2 minutes and then quenched on ice. Aliquots (about 0.5 μl) of the resulting solutions were loaded on every other lane of a sequence gel and electrophoresed. The sequence gel (36 cm WTR) has the following composition: 6 M urea, 8% polyacrylamide (acrylamide:bisacrylamide=19:1), and 0.5×TBE. The electrophoresis buffer used was 0.5×TBE. The run module used was GS Run 36C-2400. The electrophoresis time was set to about 1 hour, and peak patterns of the reaction products were analyzed and quantified using GeneScan Software (Version 3.0).
Using the peak heights of the unreacted primer fragment and single nucleotide-inserted DNA fragments, the percentage of each primer elongated by a single nucleotide was determined to calculate enzymological parameters Km and Vmax from Hanes-Woolf plots (Goodman, M. F., Creighton, S., Bloom, L. B., Petruska, J. Crit. Rev. Biochem. Mol. Biol., 28, 83-126 (1993)).

[3] = biological target: T3, T7 RNA polymerase (Escherichia phage T7, UniProt P00573); assay: Site-selective introduction of ryTP into RNA through transcription; assay type: biochemical; conditions: for incorporation efficiency of the substrate y into RNA (transcription efficiency): one unnatural base in template (vT or sT), compared to natural base pairing (AT); for transcription efficiency, two y substrates incorporated into RNA: two adjacent unnatural bases in template (NN=vv or NN=ss)
T3 construct: purchased TAKARA SHUZO CO., LTD (TaKaRa)
T3 sequence (P00573 whole entry): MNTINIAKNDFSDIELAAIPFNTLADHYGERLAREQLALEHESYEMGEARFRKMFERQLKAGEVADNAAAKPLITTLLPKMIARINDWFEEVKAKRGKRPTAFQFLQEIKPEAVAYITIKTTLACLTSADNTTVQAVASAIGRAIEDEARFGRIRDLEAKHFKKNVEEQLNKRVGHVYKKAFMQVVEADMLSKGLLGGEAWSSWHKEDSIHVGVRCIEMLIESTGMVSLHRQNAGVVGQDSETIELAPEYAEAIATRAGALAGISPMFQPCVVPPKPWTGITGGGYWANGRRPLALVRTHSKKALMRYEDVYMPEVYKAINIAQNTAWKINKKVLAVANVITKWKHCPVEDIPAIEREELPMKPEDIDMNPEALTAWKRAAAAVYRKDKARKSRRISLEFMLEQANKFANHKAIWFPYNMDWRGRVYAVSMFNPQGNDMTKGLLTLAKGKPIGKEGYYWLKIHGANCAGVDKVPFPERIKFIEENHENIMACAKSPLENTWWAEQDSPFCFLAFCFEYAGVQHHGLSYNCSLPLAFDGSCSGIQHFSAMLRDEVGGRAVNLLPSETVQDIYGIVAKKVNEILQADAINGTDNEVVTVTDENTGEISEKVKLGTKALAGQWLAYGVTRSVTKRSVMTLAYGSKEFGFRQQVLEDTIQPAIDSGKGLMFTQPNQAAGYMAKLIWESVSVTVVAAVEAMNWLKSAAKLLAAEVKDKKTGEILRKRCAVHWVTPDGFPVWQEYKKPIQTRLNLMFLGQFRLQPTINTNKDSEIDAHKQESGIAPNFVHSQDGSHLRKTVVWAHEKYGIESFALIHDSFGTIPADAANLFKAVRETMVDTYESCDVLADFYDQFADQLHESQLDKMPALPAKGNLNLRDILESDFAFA
Protocol: This example was intended to study site-selective introduction of ryTP into RNA through transcription reaction. […] The DNA primer required for the transcription reaction had the following sequence.
A template and T7prim21 were mixed in 10 mM Tris-HCl (pH 7.6) containing 10 mM NaCl and annealed into a double-stranded form for use in the transcription reaction (FIG. 14). The T7 transcription reaction was performed on 20 μl scale using an enzyme from TAKARA SHUZO CO., LTD [T. Ohtsuki et al., Proc. Natl. Acad. Sci. USA, 98, 4922-4925 (2001)]. More specifically, the transcription reaction was accomplished by incubation at 37° C. for 3 hours in a reaction solution containing 40 mM Tris-HCl pH 8.0, 5 mM DTT, 24 mM MgCl2, 2 mM spermidine, 0.01% TritonX-100, 10 mM GMP, 1 mM NTPs (N=G, C, U, with or without ryTP, as shown in FIGS. 15 and 16), 2 μCi [α-^32P]ATP, 2 μM double-stranded DNA (template and T7prim21), and 2.5 U/μl T7 RNA polymerase (TaKaRa). If the transcription reaction proceeds completely, an RNA product having the following full-length sequence can be obtained.
The reaction solutions were each supplemented with an equal volume of a 10 M urea-containing BPBdye solution and heated at 75° C. for 3 minutes to stop the reaction, followed by electrophoresis on a 20% polyacrylamide-7 M urea gel to confirm products of the transcription reaction. The [α-^32P]ATP-labeled reaction products were analyzed with a bioimaging analyzer (BAS2500, Fuji Photo Film Co., Ltd., Japan). The incorporation efficiency of the substrate y into RNA when using the sT-containing template in transcription with T7 RNA polymerase (FIG. 14) was about 50% to 60%, as compared to natural base pairing (AT). In contrast, when using the vT-containing template, the incorporation efficiency of the substrate y was 96%, which was as high as that of natural base pairing (FIG. 15).

[4] = biological target: T4, Klenow fragment (KF exo−), DNA polymerase I lacking 3′→5′ exonuclease activity (Escherichia coli, UniProt P00582, D355A/E357A); assay: Klenow fragment-mediated single nucleotide insertion experiment (replication); assay type: biochemical, E. coli
T4 construct: Large fragment of DNA polymerase Exonuclease-free Klenow enzyme (Cloned) (Amersham USB); purchased Amersham USB
T4 sequence (P00582 324-928 D355A/E357A): as the sequence (P00582 324-928 D355A/E357A) above
Source text: In this example, E. coli-derived DNA polymerase I lacking 3′→5′ exonuclease activity, i.e., Klenow fragment (KF exo^−) was used to make a comparison of the efficiency for single nucleotide incorporation during replication (i.e., incorporation of 2-oxo-(1H)pyridine (y) into DNA) between v-y base pair (the present invention) and s-y base pair (control).
More specifically, Large fragment of DNA polymerase Exonuclease-free Klenow enzyme (Cloned) (Amersham USB) and 10× reaction buffer attached thereto (500 mM Tris-HCl pH 7.5, 100 mM MgCl2, 10 mM DTT, 0.5 mg/ml BSA) were used. The enzyme concentration of KF exo^− was determined using a Bio-Rad Protein Assay kit (BioRad) for each lot purchased.
The primer for use in the reaction was pre-labeled at its 5′-end using T4 polynucleotide kinase (TaKaRa) and […], and then purified by gel electrophoresis.
Reaction conditions: a mixed solution of template DNA (20 μM, 1 μl), the primer whose 5′-end was labeled with ^32P (5 μM, 4 μl) and 10× reaction buffer (1 μl) was heated at 95° C. for 3 minutes and then annealed by quenching to form a duplex between the template DNA and the primer. A Klenow fragment solution (1 μM) diluted with enzyme dilution buffer (50 mM phosphate buffer pH 7, 50% glycerol, 1 mM DTT) was added in a volume of 2 μl and incubated at 37° C. for 2 minutes, followed by addition of 2 μl dNTP solution (any one of A, G, C, T or y shown in FIG. 8) (100 μM) to start the reaction. After incubation at 37° C. for 2 minutes, 10 μl of a 10 M urea-containing TBE solution was added and heated at 75° C. for 3 minutes to stop the reaction. The reaction conditions are summarized as follows: template/primer 2 μM; KF exo^− 200 nM; dNTP 20 μM; reaction at 37° C. for 2 minutes.
Aliquot parts of the reaction solutions were electrophoresed on a 20% polyacrylamide-7 M urea gel and the reaction products were analyzed with a bioimaging analyzer (BAS2500, Fuji Photo Film Co., Ltd., Japan).

[5] = template/primer 2 μM, KF exo− 200 nM, dNTP 20 μM, 37° C., 2 minutes

| SMILES | replication with two adjacent unnatural bases in template (35-mer product) [1] | efficiency (Vmax/Km) ([2]; N′ = A) | Vmax ([2]; N′ = A, SD in parentheses) | efficiency (Vmax/Km) ([2]; N′ = C) | Vmax ([2]; N′ = C, SD in parentheses) | efficiency (Vmax/Km) ([2]; N′ = T) | Vmax ([2]; N′ = T, SD in parentheses) | efficiency (Vmax/Km) ([2]; N′ = y) | Vmax ([2]; N′ = y, SD in parentheses) | incorporation efficiency of the substrate y into RNA (transcription efficiency) [3] | transcription efficiency, two y substrates incorporated into RNA [3] | other results |
| --- | --- | --- | --- | --- | --- | --- | --- | --- | --- | --- | --- | --- |
| Nc1nc(-c2nccs2)c2[nH]cnc2n1 [v, 2-amino-6-(2-thiazolyl)purine] | allows replication to proceed | 3.3 × 10^3 % min^−1M^−1 | 0.36(0.08) % min^−1 | 4.1×10^4 % min^−1M^−1 | 22(5) % min^−1 | 5.1×10^3 % min^−1M^−1 | 2.0(0.7) % min^−1 | 1.4×10^5 % min^−1M^−1 | 40(21) % min^−1 | 96% | about 30% | replication efficiency in elongation reaction (35-mer band intensity) ([1]; G and y, one unnatural base in template (NN=vT vs NN=sT)): higher replication efficiency than the s-y base pair; incorporation efficiency of y opposite v relative to y opposite s ([2]; ratio of Vmax/Km): about 4 fold; incorporation efficiency of y opposite v relative to C incorporation ([2]; selectivity, ratio of Vmax/Km): about 3 fold; incorporation efficiency of y opposite v relative to T incorporation ([2]; selectivity, ratio of Vmax/Km): ≥ 20 fold; incorporation selectivity opposite y ([4]; compared with s): comparable to the selectivity of s; incorporation of C opposite the template base [4, 5]: also incorporated although in a small amount; incorporation of y at the site corresponding to the template base [4, 5]: selectively incorporated |
| Nc1nc(-c2cccs2)c2[nH]cnc2n1 [s, 2-amino-6-thienylpurine, reference compound] | little 35-mer product was obtained; also recorded: little incorporation of y | 3.0 × 10^3 % min^−1M^−1 | 0.26(0.06) % min^−1 | 2.5 × 10^4 % min^−1M^−1 | 15(5) % min^−1 | 9.4 × 10^3 % min^−1M^−1 | 3.0(0.3) % min^−1 | 3.6×10^4 % min^−1M^−1 | 9.4(2.5) % min^−1 | 50-60% | no RNA incorporating two y was obtained | Km ([2]; N′ = A, SD in parentheses): 86 µM; Km ([2]; N′ = C, SD in parentheses): 590 µM; Km ([2]; N′ = T, SD in parentheses): 320 µM; Km ([2]; nucleoside triphosphate N′ = y, standard deviation in parentheses): 260 µM |
